Some test systems named below: IGROV-1; K562; CCRF-CEM; CAKI-1; RPMI-8226; SF-295; 786-0; MDA-N; UO-31; M14; SR; OVCAR-3; SF-268; OVCAR-4; SK-MEL-2; T47D; PC-3; KM12; SK-MEL-5.
Holding throughout (assay): NCI anticancer screen, dose series, 48 h

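Step 1: Grow cells in 96-well plates. Step 2: Expose to compound for 48 hours at 5 concentrations. Step 3: Interpolate endpoints linearly; if unreached, use highest concentration. Here, GI50 denotes the concentration required for 50% inhibition of growth.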 Active and inactive are the calls of the source. Rule as the data show it: active = GI50 up to about 1.1 µM and inactive = higher.

We go through nine compounds from ChEMBL document CHEMBL1201862, “PubChem BioAssay data set” (2004).

For `COc1ccc2c3c1O[C@H]1C(OC)C=CC4C(C2)N(Cc2cccs2)CCC341` (some centres undefined), the GI50 in the assay on IGROV-1 was > 100 µM (inactive); in the assay with K562, 51.6 µM (inactive); in the assay on CCRF-CEM, 49.7 µM (inactive); in the assay on CAKI-1, > 100 µM (inactive); with RPMI-8226, 62.1 µM (inactive); with SF-295 it was 61 µM (inactive). Also, the GI50 in the assay on 786-0 was > 100 µM (inactive); in the assay with MDA-N, 60 µM (inactive); in the assay on UO-31 it was > 100 µM (inactive); in the assay with M14 it was 70.6 µM (inactive); with SR, 75.5 µM (inactive); in the assay on OVCAR-3, 45.4 µM (inactive). Also, the GI50 in the assay with SF-268 is > 100 µM (inactive).

For the compound `Cc1ccc(Nc2c3c(c(C#N)c4nc5ccccc5n24)CCCC3)cc1`, the GI50 was 20.7 µM (inactive) in the assay with OVCAR-4; 28.2 µM (inactive) in the assay with IGROV-1; 4.39 µM (inactive) with K562; 13.1 µM (inactive) in the assay on SK-MEL-2; 6.05 µM (inactive) with CCRF-CEM; 25.4 µM (inactive) in the assay with CAKI-1. Besides, the GI50 in the assay with T47D was 13.7 µM (inactive); in the assay on SF-295 it was 13 µM (inactive); with 786-0, 26.7 µM (inactive); in the assay with MDA-N, 28.7 µM (inactive); in the assay with PC-3, 6.64 µM (inactive); with KM12, > 100 µM (inactive). The GI50 with UO-31 was 12 µM (inactive); in the assay with M14, 21.6 µM (inactive); with OVCAR-3 it was 11.1 µM (inactive); with SF-268, > 100 µM (inactive); with SK-MEL-5 it was 10.7 µM (inactive).

With `CN(/N=C/C=N/N(C)C1=NCCCN1)C1=NCCCN1`, the GI50 in the assay with OVCAR-4, in the assay on IGROV-1, in the assay with K562, in the assay on CCRF-CEM, in the assay with CAKI-1 and in the assay with SF-295 was > 100 µM (inactive) in each case. Besides, the GI50 with 786-0, with MDA-N, in the assay on PC-3, in the assay with KM12, in the assay on UO-31 and in the assay on M14 was > 100 µM (inactive) each time. The GI50 in the assay on SR, with OVCAR-3, in the assay with SF-268 and in the assay on SK-MEL-5 was > 100 µM (inactive) in each case.

As to `CC1(CC(=O)OC(C#C[Si](C)(C)C)Cc2ccccc2)OCCO1` (centres undefined), the GI50 in the assay with OVCAR-4, in the assay with IGROV-1, in the assay with SK-MEL-2, in the assay with CCRF-CEM, in the assay with CAKI-1 and in the assay on T47D was > 100 µM (inactive) throughout. Besides, the GI50 in the assay on SF-295, with 786-0, in the assay on MDA-N, in the assay with PC-3, in the assay with KM12 and in the assay on UO-31 was > 100 µM (inactive) in each case. For the same compound, the GI50 in the assay on M14, in the assay on SF-268 and with SK-MEL-5 was > 100 µM (inactive) in each case.

In the case of `CNc1ccc(C(=O)CC(O)CCC(C)C2OC(=O)CC(O)CC(=O)CC(O)CC(O)CC(O)CC(O)CC3(O)CC(O)C(C(=O)N4CCOCC4)C(CC(OC4OC(C)C(O)C(N)C4O)\C=C/C=C\C=C/C=C/C=C/C=C\C=C/C2C)O3)cc1` (centres undefined), the GI50 was 0.228 µM (active) in the assay on OVCAR-4; 0.244 µM (active) in the assay on IGROV-1; 0.378 µM (active) in the assay on K562; 0.421 µM (active) in the assay on SK-MEL-2; 0.227 µM (active) with CAKI-1; 0.259 µM (active) with RPMI-8226. Besides, the GI50 in the assay with SF-295 was 0.446 µM (active); in the assay on 786-0, 0.325 µM (active); with MDA-N it was 0.304 µM (active); with PC-3 it was 0.355 µM (active); in the assay with KM12 it was 0.319 µM (active); with UO-31, 0.195 µM (active). The GI50 is 0.328 µM (active) in the assay with M14; 0.296 µM (active) with SR; 0.435 µM (active) with OVCAR-3; 0.218 µM (active) in the assay on SF-268; 0.181 µM (active) in the assay with SK-MEL-5.

On to `O=C(NC(Cc1c[nH]c2ccccc12)C(=O)O)/C(=C/c1ccccc1O)NC(=O)c1ccccc1` (centres undefined), for which the GI50 is 57.5 µM (inactive) in the assay on OVCAR-4; 19.2 µM (inactive) with IGROV-1; > 100 µM (inactive) in the assay with K562; > 100 µM (inactive) in the assay on CCRF-CEM; 18.8 µM (inactive) in the assay on CAKI-1; 12.1 µM (inactive) in the assay with T47D. The GI50 in the assay on RPMI-8226 was > 100 µM (inactive); in the assay on SF-295, 19.8 µM (inactive); in the assay on 786-0, 18.6 µM (inactive); in the assay with MDA-N, 7.05 µM (inactive); in the assay on KM12, 7.16 µM (inactive); in the assay with UO-31 it was 6.78 µM (inactive). The GI50 in the assay with M14 was > 100 µM (inactive); with SR it was > 100 µM (inactive); in the assay on SF-268, 17.6 µM (inactive); with SK-MEL-5 it was > 100 µM (inactive).

For the compound `O=[N+]([O-])c1ccc(-c2csc3nc(-c4ccccc4)nn23)cc1`, the GI50 with OVCAR-4 is > 100 µM (inactive); with IGROV-1, > 100 µM (inactive); in the assay with K562, > 100 µM (inactive); with SK-MEL-2, > 100 µM (inactive); with CCRF-CEM it was > 100 µM (inactive); in the assay on CAKI-1, 72.8 µM (inactive). Besides, the GI50 in the assay with RPMI-8226 was > 100 µM (inactive); in the assay with SF-295, 28.3 µM (inactive); with 786-0 it was 98.2 µM (inactive); in the assay on MDA-N, > 100 µM (inactive); in the assay on PC-3, > 100 µM (inactive); in the assay with KM12, > 100 µM (inactive). Besides, the GI50 was > 100 µM (inactive) in the assay on UO-31; > 100 µM (inactive) in the assay with M14; > 100 µM (inactive) in the assay on SR; > 100 µM (inactive) with OVCAR-3; 82 µM (inactive) in the assay with SF-268; > 100 µM (inactive) with SK-MEL-5.

As to `C[n+]1c(-c2ccc(/C=N\Nc3ccnc(N/N=C/c4ccc(-c5cn6ccsc6[n+]5C)cc4)n3)cc2)cn2ccsc21`, the GI50 in the assay on OVCAR-4 was 58.1 µM (inactive); in the assay on IGROV-1, 11.2 µM (inactive); with K562, 8.71 µM (inactive); in the assay with CCRF-CEM it was 18.3 µM (inactive); with CAKI-1, 22.7 µM (inactive); in the assay on RPMI-8226, 4.65 µM (inactive). Moreover, the GI50 is 10.9 µM (inactive) in the assay on 786-0; 2.96 µM (inactive) in the assay on MDA-N; 48.3 µM (inactive) in the assay with PC-3; 15.8 µM (inactive) with KM12; 20 µM (inactive) with UO-31; 4.95 µM (inactive) in the assay on M14. Moreover, the GI50 in the assay on SR is 12.6 µM (inactive); in the assay with OVCAR-3, > 100 µM (inactive); in the assay on SK-MEL-5, 10.6 µM (inactive).

Consider `COc1cc(C23OCC(Cc4cc5c(cc42)OCO5)C3CO)cc(OC)c1OC` (centres undefined), for which the GI50 was 41.1 µM (inactive) with OVCAR-4; 2.44 µM (inactive) in the assay with IGROV-1; 3.89 µM (inactive) in the assay with K562; 3.24 µM (inactive) in the assay on SK-MEL-2; 2.92 µM (inactive) with CCRF-CEM; 5.79 µM (inactive) in the assay on CAKI-1. Moreover, the GI50 in the assay with SF-295 was 0.266 µM (active); with 786-0, 3.09 µM (inactive); in the assay on MDA-N, 0.402 µM (active); in the assay on PC-3, 1.85 µM (inactive); with KM12 it was 0.215 µM (active); in the assay with UO-31 it was 8.95 µM (inactive). For the same compound, the GI50 was 3.64 µM (inactive) with M14; 0.187 µM (active) with SR; 1.46 µM (inactive) in the assay on OVCAR-3; 4.82 µM (inactive) in the assay on SF-268; 6.7 µM (inactive) in the assay on SK-MEL-5.
